{"source": "patent US9670206B2", "about": "“Pyrido[4,3-B]pyrazine-2-carboxamides as neurogenic agents for the treatment of neurodegenerative disorders” (Hoffmann-La Roche Inc., priority 2013, dated 2017)"}
{"test_system": "human embryonic stem cell derived neural stem cells (NSCs)", "experiment": "Neural stem cell proliferation assay (neurogenesis assay, ATP levels by CellTiterGlo)", "format": "cell-based", "conditions": "96 h, compound concentration at which 150% activity of control (100%) is reached, NSC proliferation, ATP readout after 4 days incubation", "protocol": "Neural Stem Cell Proliferation Assay\nNeurogenic properties of small molecules are determined based on the proliferation of human embryonic stem cell derived neural stem cells (NSCs) which were derived via a dual smad inhibition as previously described (Chambers, S. M., et al., Highly efficient neural conversion of human ES and iPS cells by dual inhibition of SMAD signaling, Nature biotechnology, 2009. 27(3): p. 275-80.) Compounds respond is measured by the increase in cells based on ATP levels (Promega:CellTiterGlo®) after an incubation period of 4 days. NSCs are thawed and expanded over 3 passages. On the 14th day, NSCs are seeded in Polyornithin/Laminin coated 384 well plates at a cell density of 21,000 cells/cm^2 in a media volume of 38 μl. 4 hours after cell seeding, compound solutions are added at a volume of 2 μl. Stock solutions of the compounds (water, 5% DMSO) are diluted to obtain a dose response (11 points, dilution factor is 2), ranging from 8 μM to 8 nM. Controls are run to consistently determine the neurogenic properties of the cells: Negative (neutral) control is cell culture Media (final DMSO concentration: 0.25%). Positive controls are: • 1. cell culture Media+100 ng/ml FGF2 (final DMSO concentration: 0.1%) • 2. cell culture Media+20 ng/ml EGF (final DMSO concentration: 0.1%) • 3. cell culture Media+100 ng/ml Wnt3a (final DMSO concentration: 0.1%) After 4 days incubation at 37° C., 5% CO2, the amount of ATP per well is quantified. The ATP concentration is proportional to the cell number. ATP is quantified by using the Promega CellTiterGlo® kit. The CellTiterGlo® reagents contain a cell lysis buffer, a thermo stable luciferase (UltraGlo™ recombinant luciferase), magnesium and luciferin. Luciferin reacts with ATP producing oxyluciferin, AMP and light. The luminescence signal is proportional to the ATP content. The value of negative (neutral) control is determined for each assay plate by taking the average of 16 negative control wells. The neurogenic compound response is calculated for each compound as (compound/Negative Control)*100. The values of EC150 from the dose response curve are determined for each test compound. The EC150 is the compound concentration at which 150% activity of control (100%) is reached.", "units": {"EC (150% of control)": "µM"}}
{"compound": "O=C(c1cnc2cncc(-c3cc(C(F)(F)F)ccc3F)c2n1)N1CCC(O)C1", "note": "(centres unmarked) [Example 40, (8-(2-Fluoro-5-(trifluoromethyl)phenyl)pyrido[4,3-b]pyrazin-2-yl)(3-hydroxypyrrolidin-1-yl)methanone]", "EC (150% of control)": 0.93}
{"compound": "O=C(c1cnc2cncc(-c3cccc(OC(F)(F)F)c3)c2n1)N1CCC(O)C1", "note": "(centres unmarked) [Example 41, (3-Hydroxypyrrolidin-1-yl)(8-(3-(trifluoromethoxy)phenyl)pyrido[4,3-b]pyrazin-2-yl)methanone]", "EC (150% of control)": 0.6}
{"compound": "NC(=O)c1cnc2cncc(N3CCC(F)(F)CC3)c2n1", "note": "[Example 42, 8-(4,4-Difluoropiperidin-1-yl)pyrido[4,3-b]pyrazine-2-carboxamide]", "EC (150% of control)": 0.09}
{"compound": "O=C(c1cnc2cncc(-c3ccc(Cl)nc3)c2n1)N1CCC(O)C1", "note": "(centres unmarked) [Example 43, (8-(6-Chloropyridin-3-yl)pyrido[4,3-b]pyrazin-2-yl)(3-hydroxypyrrolidin-1-yl)methanone]", "EC (150% of control)": 0.03}
{"compound": "O=C(c1cnc2cncc(-c3ccc(Cl)c(F)c3)c2n1)N1CCC(O)C1", "note": "(centres unmarked) [Example 44, (8-(4-Chloro-3-fluorophenyl)pyrido[4,3-b]pyrazin-2-yl)(3-hydroxypyrrolidin-1-yl)methanone]", "EC (150% of control)": 0.27}
{"compound": "O=C(c1cnc2cncc(-c3ccc(C(F)(F)F)cc3F)c2n1)N1CCC(O)C1", "note": "(centres unmarked) [Example 45, (8-(2-Fluoro-4-(trifluoromethyl)phenyl)pyrido[4,3-b]pyrazin-2-yl)(3-hydroxypyrrolidin-1-yl)methanone]", "EC (150% of control)": 1.48}
{"compound": "CC(NC(=O)c1cnc2cncc(-c3ccc(Cl)c(F)c3)c2n1)C(C)(C)O", "note": "(centres unmarked) [Example 46, 8-(4-Chloro-3-fluorophenyl)-N-(3-hydroxy-3-methylbutan-2-yl)pyrido[4,3-b]pyrazine-2-carboxamide]", "EC (150% of control)": 0.29}
{"compound": "CC(NC(=O)c1cnc2cncc(-c3cc(F)c(F)c(F)c3)c2n1)C(C)(C)O", "note": "(centres unmarked) [Example 47, N-(3-Hydroxy-3-methylbutan-2-yl)-8-(3,4,5-trifluorophenyl)pyrido[4,3-b]pyrazine-2-carboxamide]", "EC (150% of control)": 0.03}
{"compound": "O=C(c1cnc2cncc(-c3ccc(CO)cc3)c2n1)N1CCC(O)C1", "note": "(centres unmarked) [Example 48, (8-(4-(Hydroxymethyl)phenyl)pyrido[4,3-b]pyrazin-2-yl)(3-hydroxypyrrolidin-1-yl)methanone]", "EC (150% of control)": 0.67}
{"compound": "CC(NC(=O)c1cnc2cncc(-c3ccnn3C)c2n1)C(C)(C)O", "note": "(centres unmarked) [Example 49, N-(3-Hydroxy-3-methylbutan-2-yl)-8-(1-methyl-1H-pyrazol-5-yl)pyrido[4,3-b]pyrazine-2-carboxamide]", "EC (150% of control)": 0.02}
{"compound": "Cn1nccc1-c1cncc2ncc(C(N)=O)nc12", "note": "[Example 50, 8-(1-Methyl-1H-pyrazol-5-yl)pyrido[4,3-b]pyrazine-2-carboxamide]", "EC (150% of control)": 0.02}
{"compound": "Cc1ccc(-c2cncc3ncc(C(=O)NC(C)C(C)(C)O)nc23)cn1", "note": "(centres unmarked) [Example 51, N-(3-Hydroxy-3-methylbutan-2-yl)-8-(6-methylpyridin-3-yl)pyrido[4,3-b]pyrazine-2-carboxamide]", "EC (150% of control)": 0.08}
{"compound": "O=C(c1cnc2cncc(-c3ccc(C(F)(F)F)c(F)c3)c2n1)N1CCC(O)C1", "note": "(centres unmarked) [Example 52, (8-(3-Fluoro-4-(trifluoromethyl)phenyl)pyrido[4,3-b]pyrazin-2-yl)(3-hydroxypyrrolidin-1-yl)methanone]", "EC (150% of control)": 0.07}
{"compound": "Cc1cccc(-c2cncc3ncc(C(=O)NC(C)C(C)(C)O)nc23)n1", "note": "(centres unmarked) [Example 53, N-(3-Hydroxy-3-methylbutan-2-yl)-8-(6-methylpyridin-2-yl)pyrido[4,3-b]pyrazine-2-carboxamide]", "EC (150% of control)": 0.5}
